We go through 20 compounds from PubChem BioAssay AID651655 (NMMLSC, 2012).

Structures are written as SMILES. Active and inactive are the calls of the source.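 How the source made its calls: active means viability at the highest tested concentration below 50%; inactive means the rest.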

For the first assay, the system named is K562 vector control cells viability, CellTiter-Glo, 18 h. The assay is described as follows: viability loss, cell-based, CellTiter-Glo luminescence, cherry picks 01-02, cytotoxicity control for ABCB6 inhibitor project, dose response (AID 651655).
Details: not given
For the compound `CCc1ccc(NC(=O)c2nc(S(=O)(=O)Cc3ccccc3)ncc2Cl)cc1`, the EC50 is 390 nM.

Regarding `Cc1cccc(C)c1NC(=O)c1nc(S(=O)(=O)Cc2ccccc2)ncc1Cl`, the EC50 was 979 nM.

`Cc1ccc(NC(=O)c2nc(S(=O)(=O)Cc3ccccc3C)ncc2Cl)cc1C`: the EC50 was 758 nM.

Regarding `Cc1nnc(NC(=O)c2nc(S(=O)(=O)Cc3ccccc3)ncc2Cl)s1`, the concentration for a half-maximal effect (EC50) is 2050 nM.

In the case of `CCOc1ccccc1NC(=O)c1nc(S(=O)(=O)Cc2cccc(C)c2)ncc1Cl`, the EC50 was 715 nM.

As for `CCOC(=O)c1ccc(NC(=O)c2nc(S(=O)(=O)Cc3ccccc3)ncc2Cl)cc1`, the EC50 was 1930 nM.

Regarding `Cc1ccc(CS(=O)(=O)c2ncc(Cl)c(C(=O)Nc3ccc(OC(F)F)cc3)n2)cc1`, the EC50 was 741 nM.

For the compound `Cc1ccc(CS(=O)(=O)c2ncc(Cl)c(C(=O)Nc3nnc(C(C)C)s3)n2)cc1`, the EC50 was 596 nM.

For the compound `CC(=O)Nc1ccc(NC(=O)c2nc(S(=O)(=O)Cc3cccc(C)c3)ncc2Cl)cc1`, the EC50 was 660 nM.

With `Cc1cccc(CS(=O)(=O)c2ncc(Cl)c(C(=O)Nc3nnc(C(C)C)s3)n2)c1`, the EC50 is 627 nM.

Regarding `CC(=O)Nc1ccc(NC(=O)c2nc(S(=O)(=O)Cc3ccccc3)ncc2Cl)cc1`, the EC50 is 911 nM.

As to `CCOc1ccccc1NC(=O)c1nc(S(=O)(=O)Cc2ccccc2)ncc1Cl`, the half-maximal effective concentration (EC50) was 2200 nM.

System in a further assay: not listed separately
The description is as above. Conditions: K562 vector control cells viability, CellTiter-Glo, 18 h; at 100 µM (top of the series). A general note: Cellular ATP, detected with luciferase, serves as a proxy for viable cell number.
With `C[N+](C)(C)CC1CCCC(C[N+](C)(C)C)C1=O` (stereo not given), the viability is 67.5% (inactive).

`CCCc1nnc(NC(=O)c2nc(S(=O)(=O)Cc3cccc(C)c3)ncc2Cl)s1`: the viability was 71.2% (inactive).

With `COC(=O)c1ccc(NC(=O)c2nc(S(=O)(=O)Cc3cccc(C)c3)ncc2Cl)cc1`, the viability was 82.7% (inactive).

In the case of `Cc1cccc(CS(=O)(=O)c2ncc(Cl)c(C(=O)Nc3ccc(F)cc3)n2)c1`, the viability was 90.2% (inactive).

Take `O=C(Nc1ccc(F)cc1)c1nc(S(=O)(=O)Cc2ccccc2)ncc1Cl`: the viability is 81.6% (inactive).

On to `Cc1ccccc1CS(=O)(=O)c1ncc(Cl)c(C(=O)Nc2ccc(F)cc2)n1`, for which the viability is 61.6% (inactive).

As to `Cc1ccc(NC(=O)c2nc(S(=O)(=O)Cc3ccccc3)ncc2Cl)cc1`, the viability was 80.4% (inactive).

Consider `CCN(CC)S(=O)(=O)c1cccc(-n2c(O)c(C=Nc3ccccc3C(=O)O)c3ccccc3c2=O)c1`, for which the viability was 79% (inactive).

One may read the EC50 as the concentration that produces a half-maximal response. In general, viability refers to the share of living cells, or the viability signal relative to a control.
